Laboratory results published in PMC11755562, “Peptide Inhibitor Assay for Allocating Functionally Important Accessible Sites Throughout a Protein Chain: Restriction Endonuclease EcoRI as a Model Protein System” (BioTech, 2024).
“Also recorded” adds a separate entry of the source.

Legend:
[1] = molecular target: T1, EcoRI (Escherichia coli, UniProt P00642); test: Peptide inhibitor assay (PIA): EcoRI digestion of pCRII-TOPO-OR23 plasmid, fluorescence intensity of the excised OR23 band on agarose gel; type: biochemical; conditions: for significance of inhibition of EcoRI activity versus no peptide / level of inhibitory effect on EcoRI (in words) / inhibitory effect compared with the original peptide (in words) / relative fluorescence intensity of excised OR23 fragment: 3 h; for significance of inhibition of EcoRI activity versus no peptide: EcoRI:peptide 1:500, Dunnett's test versus no peptide; for significance of inhibition of EcoRI activity versus no peptide / level of inhibitory effect on EcoRI (in words) / inhibitory effect, fluorescence intensity versus incubation time (in words) / concentration dependence of the inhibitory effect / inhibitory effect compared with the original peptide (in words): n = 3; for level of inhibitory effect on EcoRI (in words): EcoRI:peptide 1:500, relative fluorescence intensity; for inhibitory effect, fluorescence intensity versus incubation time (in words): time course until 5 h, EcoRI:peptide 1:500, compared with no peptide; for concentration dependence of the inhibitory effect: ×5 to ×500 molar equivalence to EcoRI, fixed time point 3 h; for inhibitory effect compared with the original peptide (in words): EcoRI:peptide 1:500, randomized peptides by Student's t-test versus each endogenous BP; for relative fluorescence intensity of excised OR23 fragment: relative to no peptide, EcoRI:peptide 1:500 molar ratio, 37 °C, 0.015 mM Mg2+, mean of n = 3
T1 construct: The first M is removed after translation in this protein; purchased New England Biolabs
T1 sequence (P00642 2-277): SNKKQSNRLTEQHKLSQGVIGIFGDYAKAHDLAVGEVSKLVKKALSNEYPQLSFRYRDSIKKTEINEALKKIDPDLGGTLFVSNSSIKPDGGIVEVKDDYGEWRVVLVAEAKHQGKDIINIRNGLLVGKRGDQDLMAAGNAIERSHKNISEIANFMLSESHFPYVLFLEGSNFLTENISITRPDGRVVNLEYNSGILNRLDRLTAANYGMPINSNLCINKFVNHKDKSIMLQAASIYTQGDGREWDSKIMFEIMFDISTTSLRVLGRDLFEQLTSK
Procedure: Peptide synthesis was performed by GenScript Japan (Tokyo, Japan). All peptides were confirmed to be more than 75% pure via high-performance liquid chromatography (HPLC) and to have theoretical molecular weights via mass spectrometry (MS). The peptides were dissolved in DMSO (dimethyl sulfoxide) and were prepared at 5.59 × 10^−9 mol/μL (5.59 mM). When 1.0 μL of this peptide mixture was mixed in a tube for the inhibition of EcoRI catalytic activity, the molar ratio of EcoRI to peptide was 1:500. This concentration in molar equivalence was used throughout this study unless otherwise noted.
Purified and concentrated EcoRI (20,000 U/mL, approximately 338 μg/mL, 1.12 × 10^−[…]) was obtained from New England Biolabs (Ipswich, MA, USA). To quantify and visualize the inhibitory effects of the peptides, the enzymatic reaction conditions were set so that at least three hours of incubation were required to completely digest the substrate plasmid DNA with EcoRI. To do so, we used a low Mg^2+ concentration (0.015 mM) in the reaction mixture in contrast to the optimum concentration of Mg^2+ for EcoRI (10 mM).
(§1) All master solutions and samples were prepared on ice. A single reaction tube contained the following common ingredients: autoclaved DNase-free RNase-free deionized H2O (12.5 μL) (Nippon Gene), 10× NE Buffer Mg^2+-free (2.0 μL), pCRII-TOPO-OR23 plasmid DNA (2.0 μL of 40 ng/μL solution), MgCl2 (1.5 μL of 0.20 mM solution), and EcoRI (1.0 μL). A master solution containing these ingredients without DMSO or a peptide was first prepared for the number of sample tubes. The master solution was aliquoted into 1.5 mL spin tubes (19.0 μL per tube). Then, 1.0 μL of DMSO or a peptide sample was added, and the mixture was incubated at 37 °C. A negative control with DMSO but without a peptide (“no peptide” control) was run in every assay. When the digestion efficiency was compared, another negative control with autoclaved DNase-free RNase-free H2O without EcoRI was prepared. After the reaction, the samples were quickly cooled on ice for ten minutes and then stored at −80 °C until agarose gel electrophoresis. The above protocol was conducted for all peptides (including BP19.5, BP19.5N, and BP19.5C) used in the present study unless otherwise noted.
To quantify EcoRI activity after incubation of a reaction mixture, digested pCRII-TOPO-OR23 plasmid DNA was examined via agarose gel electrophoresis. We first prepared a 25 mL solution of 1.0% agarose (Nippon Gene) in TAE (Tris-acetate-EDTA) buffer (Promega, Madison, WI, USA) to produce an agarose gel. An ethidium bromide solution (0.5 μL of 10 mg/mL) (Promega) was added before gelation. After incubation with EcoRI, the fluorescence intensity of the band of the excised OR23 fragment was measured via an ImageQuant LAS4000 (GE Healthcare Japan, Tokyo, Japan) with the following conditions: “Exposure Type”: Precision; “Exposure Time”: Manual 1/8 sec; “Sensitivity/Resolution”: Standard; and “Fluorescent Method”: Epi illumination; EtBr; UV (Trans UV) light; 6-5DF50 Filter; and F2.8 Iris.
For statistical analyses, Student’s t-test (unpaired and bi-sided), Dunnett’s test, and Pearson correlation analysis were performed via Microsoft Excel (Office 365) and JSTAT (Yokohama, Japan). The Dunnett’s test was performed for each experimental group that was examined simultaneously in the laboratory, in comparison to the “no peptide” control group that was examined simultaneously. The repeated measure mode of the Dunnett’s test was used on the assumption that there was no interaction between samples.

[2] = molecular target: T1, EcoRI; test: Nonspecific nuclease activity of EcoRI reaction mixture with peptide (plasmid DNA degradation); type: biochemical; conditions: EcoRI plus peptide 1:500, 3 h, n = 3
Procedure: A recombinant plasmid, pCRII-TOPO (Invitrogen, Waltham, MA, USA), containing a PCR fragment of the full-length cDNA (978 bp) of the mouse odorant receptor OR23 [82, 83, 84, 85, 86] at the EcoRI cloning site (GAATTC) was used as a DNA substrate for EcoRI. […] This pCRII-TOPO-OR23 plasmid was prepared from TOP10F’ Escherichia coli (Invitrogen) using ATP Plasmid Mini Kit (ATP Biotech, Taipei, ROC). The plasmid solution was prepared at 40 ng/μL by adding autoclaved DNase-free RNase-free deionized H2O (Nippon Gene, Tokyo, Japan). The DNA concentrations were measured with a Qubit fluorometer (Invitrogen).
as §1
This reaction mixture containing EcoRI and BP19.5 appeared to degrade the plasmid DNA entirely. […] The DNA concentration at 3 h was 3.297 ± 0.006 ng/μL without any peptide in the reaction mixture and 0.332 ± 0.003 ng/μL with BP19.5, indicating a statistically significant difference (n = 3; unpaired bi-sided Student’s t-test; p = 1.6 × 10^−11). […] Therefore, BP19.5 and its derivatives are likely to cause EcoRI to become a nonspecific nuclease. In other words, BP19.5 was likely a specificity/activity modifier of EcoRI instead of an inhibitor.

For GREWDSKIMFEIMF [BP22], the “significance of inhibition of EcoRI activity versus no peptide” value [1] was “significantly inhibited EcoRI activity”, the “level of inhibitory effect on EcoRI (in words)” value (“level of inhibitory effect” for short) [1] was “especially notable” and the “inhibitory effect, fluorescence intensity versus incubation time (in words)” value [1] was “relatively high inhibitory effects”. For the same substance, the “concentration dependence of the inhibitory effect” value [1] was “concentration dependent”.

VGLILSTGDFDP [BP7R1] was tested, and the “inhibitory effect compared with the original peptide (in words)” value [1] was “as inhibitory as the original peptides”.

In the case of EGSNFLTENISI [BP16], the “level of inhibitory effect” value [1] is reported as “highly inhibitory; also recorded: most effective” and the “relative fluorescence intensity of excised OR23 fragment” value (from here on “relative fluorescence intensity”) [1] is reported as “less than 0.3”.

For PINSNLCINK [BP19.5], the “plasmid DNA degradation / nonspecific nuclease induction (agarose gel electrophoresis, in words)” value [2] was “no DNA fragment or plasmid DNA was detected” and the “DNA concentration at 3 h in the reaction mixture” value ([2]; no peptide 3.297 ± 0.006) was 0.332 ± 0.003 ng/µL.

With DLMAAGNAIERS [BP13] the “level of inhibitory effect” value [1] was “not very inhibitory”.

“PINSNL [BP19.5N, deletion peptide from BP19.5]” was tested, and the “plasmid DNA degradation / nonspecific nuclease induction (agarose gel electrophoresis, in words)” value [2] was “no DNA was detected; also recorded: induced such nuclease activity”.

EWRVVL [BP10N] was tested, and the “level of inhibitory effect” value [1] was “noninhibitory”.

GIVEVK [BP9M] was tested, and the “inhibitory effect compared with the original peptide (in words)” value [1] was “more inhibitory than the original”.

For FVSNSSIKPDGG [BP8], the “level of inhibitory effect” value [1] was “noninhibitory” and the “inhibitory effect, fluorescence intensity versus incubation time (in words)” value [1] was “relatively low inhibitory effects”.

With EQHKLSQGVIGI [BP2] the “significance of inhibition of EcoRI activity versus no peptide” value [1] was “significantly inhibitory”, the “level of inhibitory effect” value [1] was “highly inhibitory; also recorded: most effective” and the “relative fluorescence intensity” value [1] was “less than 0.3”.

For IKKTEI [BP6N], the “inhibitory effect compared with the original peptide (in words)” value [1] was “as inhibitory as the original BP6”.

With STTSLRVLGRDLFE [BP24] the “level of inhibitory effect” value [1] was “did not work well”.

VIGIFGDYAKAHDL [BP3] was tested, and the “significance of inhibition of EcoRI activity versus no peptide” value [1] was “significantly inhibitory”, the “level of inhibitory effect” value [1] was “highly inhibitory; also recorded: most effective” and the “relative fluorescence intensity” value [1] was “less than 0.3”.

In the case of AGRKQEVHAVWVEL [BP10R2], the “inhibitory effect compared with the original peptide (in words)” value [1] is reported as “as inhibitory as the original peptides”.

In the case of VNHKDKSIMLQA [BP20.5], the “level of inhibitory effect” value [1] is reported as “did not show high inhibition”.

For VEGQELAVKAHRWV [BP10R1], the “inhibitory effect compared with the original peptide (in words)” value [1] was “significantly more inhibitory”.

NEYPQLAFRYRDS [BP5] was tested, and the “significance of inhibition of EcoRI activity versus no peptide” value [1] was “significantly inhibitory”, the “level of inhibitory effect” value [1] was “highly inhibitory; also recorded: most effective” and the “relative fluorescence intensity” value [1] was “less than 0.3”.

In the case of IDPDLG [BP7N], the “level of inhibitory effect” value [1] is reported as “noninhibitory”.

In the case of AAGNAI [BP13M], the “level of inhibitory effect” value [1] is reported as “noninhibitory”.

With NISEIA [BP14M] the “level of inhibitory effect” value [1] was “noninhibitory”.

EWRVVLVAEAKHQG [BP10] was tested, and the “level of inhibitory effect” value [1] was “not very inhibitory”.

For EAKHQGKDIIN [BP10.5], the “level of inhibitory effect” value [1] was “not very inhibitory”.

For SHKNISEIANFM [BP14], the “significance of inhibition of EcoRI activity versus no peptide” value [1] was “significantly inhibited EcoRI activity”, the “level of inhibitory effect” value [1] was “especially notable; also recorded: moderate inhibitory effect” and the “inhibitory effect, fluorescence intensity versus incubation time (in words)” value [1] was “relatively high inhibitory effects”. The “concentration dependence of the inhibitory effect” value [1] was “concentration dependent”.

In the case of KPDGGIVEVKDDYG [BP9], the “level of inhibitory effect” value [1] is reported as “not very inhibitory”.

In the case of IKKTEINEALKKID [BP6], the “significance of inhibition of EcoRI activity versus no peptide” value [1] is reported as “significantly inhibited EcoRI activity” and the “level of inhibitory effect” value [1] is reported as “especially notable”.

“NLCINK [BP19.5C, deletion peptide from BP19.5]” was tested, and the “plasmid DNA degradation / nonspecific nuclease induction (agarose gel electrophoresis, in words)” value [2] was “no DNA was detected; also recorded: induced such nuclease activity”.

With LSQGVIGIFGDY [BP2.5] the “level of inhibitory effect” value [1] was “notable” and the “relative fluorescence intensity” value [1] was “less than 0.3”.

With TRPDGRVVNLEY [BP17] the “level of inhibitory effect” value [1] was “not very inhibitory”.

For LAMRGASIADEN [BP13R2], the “inhibitory effect compared with the original peptide (in words)” value [1] was “significantly less inhibitory”.

For SHKNIS [BP14N], the “level of inhibitory effect” value [1] was “noninhibitory”.

In the case of EALDIAMGRNSA [BP13R1], the “inhibitory effect compared with the original peptide (in words)” value [1] is reported as “significantly more inhibitory”.

With AVGEVSKLVKKALS [BP4] the “significance of inhibition of EcoRI activity versus no peptide” value [1] was “significantly inhibitory”.

With NSGILNRLDRLTA [BP18] the “level of inhibitory effect” value [1] was “especially notable; also recorded: most effective” and the “relative fluorescence intensity” value [1] was “less than 0.3”.

YVLFLE [BP15C] was tested, and the “level of inhibitory effect” value [1] was “most effective”, the “inhibitory effect compared with the original peptide (in words)” value [1] was “more inhibitory than the original BP15” and the “relative fluorescence intensity” value [1] was “less than 0.3”.

NGLLVG [BP12N] was tested, and the “inhibitory effect compared with the original peptide (in words)” value [1] was “more inhibitory than the original”.

With FRYRDSIKKTEI [BP5.5] the “level of inhibitory effect” value [1] was “least inhibitory; also recorded: noninhibitory”.

LDRLTAANYGM [BP18.5] was tested, and the “level of inhibitory effect” value [1] was “noninhibitory”.

DGLTPFSDVLGI [BP7R2] was tested, and the “inhibitory effect compared with the original peptide (in words)” value [1] was “significantly less inhibitory”.

With RNGLLVGKRGDQD [BP12] the “significance of inhibition of EcoRI activity versus no peptide” value [1] was “significantly inhibited EcoRI activity”.

SNKKQSNRLTEQHK [BP1] was tested, and the “significance of inhibition of EcoRI activity versus no peptide” value [1] was “significantly inhibitory” and the “level of inhibitory effect” value [1] was “reasonably inhibitory”.

With NAIERSHKNIS [BP13.5] the “level of inhibitory effect” value [1] was “not very inhibitory”.

For KRGDQDLMAAG [BP12.5], the “level of inhibitory effect” value [1] was “not very inhibitory”.

In the case of EIANFM [BP14C], the “inhibitory effect compared with the original peptide (in words)” value [1] is reported as “as inhibitory as the original BP14”.

VVNLEYNSGILN [BP17.5] was tested, and the “level of inhibitory effect” value [1] was “not very inhibitory”.

With LGRDLFEQLTSK [BP25] the “level of inhibitory effect” value [1] was “especially notable; also recorded: most inhibitory; also recorded: most effective” and the “relative fluorescence intensity” value [1] was “less than 0.3”.

In the case of VKDDYG [BP9C], the “level of inhibitory effect” value [1] is reported as “noninhibitory”.

For SSIKPDGGIVE [BP8.5], the “level of inhibitory effect” value [1] was “not very inhibitory”.
